Data as given in ChEMBL document CHEMBL4818987, “Recent advances of podophyllotoxin/epipodophyllotoxin hybrids in anticancer activity, mode of action, and structure-activity relationship: An update (2010-2020)” (Eur J Med Chem, 2020).
pIC50: −log10 of the molar value.

Assays:
K562/Adr = test: Cytotoxicity against human K562/ADR cells incubated for 72 hrs by CCK8 assay; format: functional, cell-based
K562 = test: Cytotoxicity against human K562 cells incubated for 72 hrs by CCK8 assay; format: functional, cell-based; conditions: K562, 72 h
[1] = Resistance index, ratio of IC50 for human K562/ADR cells to IC50 for human K562 cells; format: functional
HCT-116 = test: Antiproliferative activity against human HCT116 cells incubated for 3 days by MTT assay; format: functional, cell-based; conditions: HCT-116, 72 h
A549 [2] = test: Antiproliferative activity against human A549 cells incubated for 3 days by MTT assay; format: functional, cell-based; conditions: A549, 72 h
HepG2 [3] = test: Antiproliferative activity against human HepG2 cells incubated for 3 days by MTT assay; format: functional, cell-based; conditions: HepG2, 72 h
HepG2 [4] = test: Antiproliferative activity against human HepG2 cells incubated for 48 hrs by MTT assay; format: functional, cell-based; conditions: HepG2, 48 h
MCF7 = test: Antiproliferative activity against human MCF7 cells incubated for 48 hrs by MTT assay; format: functional, cell-based; conditions: MCF7, 48 h
A549 [5] = test: Antiproliferative activity against human A549 cells incubated for 48 hrs by MTT assay; format: functional, cell-based; conditions: A549, 48 h
HeLa [6] = test: Antiproliferative activity against human HeLa cells incubated for 48 hrs by MTT assay; format: functional, cell-based
A549 [7] = test: Antiproliferative activity against human A549 cells incubated for 24 hrs by MTT assay; format: functional, cell-based; conditions: A549, 24 h
HeLa [8] = test: Antiproliferative activity against human HeLa cells incubated for 24 hrs by MTT assay; format: functional, cell-based
Calu-1 = test: Antiproliferative activity against human Calu-1 cells incubated for 24 hrs by MTT assay; format: functional, cell-based; conditions: Calu-1, 24 h

SMILES	pIC50 (K562/Adr)	pIC50 (K562)	Ratio IC50 [1]	pIC50 (HCT-116)	pIC50 (A549 [2])	pIC50 (HepG2 [3])	other results
COc1cc([C@@H]2c3cc4c(cc3[C@H](OC(=O)/C=C/c3ccc(F)cc3)[C@H]3COC(=O)[C@H]23)OCO4)cc(OC)c1OC	7.96	7.96	1.1	–	–	–	–
COc1cc([C@@H]2c3cc4c(cc3[C@@H](N)[C@H]3COC(=O)[C@H]23)OCO4)cc(OC)c1OC [4BETA-NH2-PODOPHYLLOTOXIN]	–	–	–	7.00	7.00	7.00	–
COc1cc([C@@H]2c3cc4c(cc3[C@H](O[C@H]3CC[C@@H](O)[C@H](C(C)C)O3)[C@H]3COC(=O)[C@H]23)OCO4)cc(OC)c1OC	–	–	–	–	–	–	pIC50 (HepG2 [4]): 7.38; pIC50 (MCF7): 7.38; pIC50 (A549 [5]): 7.38; pIC50 (HeLa [6]): 7.38
COc1cc([C@@H]2c3cc4c(cc3[C@H](OC(=O)/C=C/c3cccc(Cl)c3)[C@H]3COC(=O)[C@H]23)OCO4)cc(OC)c1OC	7.96	7.96	1.1	–	–	–	–
COc1cc([C@@H]2c3cc4c(cc3[C@@H](NC(=S)NC(=O)c3ccc(Cl)cc3)[C@H]3COC(=O)[C@H]23)OCO4)cc(OC)c1OC	–	–	–	7.00	7.00	7.00	–
COc1cc([C@@H]2c3cc4c(cc3[C@@H](O[C@@H]3CC[C@@H](O)[C@H](C)O3)[C@H]3COC(=O)[C@H]23)OCO4)cc(OC)c1O	–	–	–	–	–	–	pIC50 (HepG2 [4]): 7.38; pIC50 (MCF7): 7.38; pIC50 (A549 [5]): 7.38; pIC50 (HeLa [6]): 7.38
COc1cc([C@@H]2c3cc4c(cc3[C@@H](NC(=S)NC(=O)c3ccccc3I)[C@H]3COC(=O)[C@H]23)OCO4)cc(OC)c1OC	–	–	–	7.00	7.00	7.00	–
COc1cc([C@@H]2c3cc4c(cc3[C@H](OC(=O)CCCCC3CCSC(c5ccc(Cl)cc5Cl)S3)[C@H]3COC(=O)[C@H]23)OCO4)cc(OC)c1OC (stereo not given in full)	–	–	–	–	–	–	pIC50 (A549 [7]): 5.57; pIC50 (HeLa [8]): 5.57; pIC50 (Calu-1): 5.57
COc1cc([C@@H]2c3cc4c(cc3[C@@H](NC(=S)NC(=O)c3cccc(Cl)c3)[C@H]3COC(=O)[C@H]23)OCO4)cc(OC)c1OC	–	–	–	7.00	7.00	7.00	–
COc1cc([C@@H]2c3cc4c(cc3[C@@H](NC(=S)NC(=O)c3cccs3)[C@H]3COC(=O)[C@H]23)OCO4)cc(OC)c1OC	–	–	–	7.00	7.00	7.00	–
COc1cc([C@@H]2c3cc4c(cc3[C@@H](O[C@@H]3CC[C@@H](O)[C@@H](C)O3)[C@H]3COC(=O)[C@H]23)OCO4)cc(OC)c1O	–	–	–	–	–	–	pIC50 (HepG2 [4]): 7.38; pIC50 (MCF7): 7.38; pIC50 (A549 [5]): 7.38; pIC50 (HeLa [6]): 7.38
COc1cc([C@@H]2c3cc4c(cc3[C@H](OC(=O)/C=C/c3ccc(Cl)cc3)[C@H]3COC(=O)[C@H]23)OCO4)cc(OC)c1OC	7.96	7.96	1.1	–	–	–	–
COc1cc([C@@H]2c3cc4c(cc3[C@@H](NC(=S)NC(=O)c3ccccc3C)[C@H]3COC(=O)[C@H]23)OCO4)cc(OC)c1OC	–	–	–	7.00	7.00	7.00	–
COc1cc([C@@H]2c3cc4c(cc3[C@H](OC(=O)/C=C/c3ccc(C)cc3)[C@H]3COC(=O)[C@H]23)OCO4)cc(OC)c1OC	7.96	7.96	1.1	–	–	–	–
COc1ccc(C2SCCC(CCCCC(=O)O[C@H]3c4cc5c(cc4[C@@H](c4cc(OC)c(OC)c(OC)c4)[C@H]4C(=O)OC[C@@H]43)OCO5)S2)cc1O (stereo not given in full)	–	–	–	–	–	–	pIC50 (A549 [7]): 5.57; pIC50 (HeLa [8]): 5.57; pIC50 (Calu-1): 5.57
COc1cccc(/C=C/C(=O)O[C@H]2c3cc4c(cc3[C@@H](c3cc(OC)c(OC)c(OC)c3)[C@H]3C(=O)OC[C@@H]32)OCO4)c1	7.96	7.96	1.1	–	–	–	–
CC[C@H]1O[C@H](O[C@@H]2c3cc4c(cc3[C@@H](c3cc(OC)c(O)c(OC)c3)[C@H]3C(=O)OC[C@@H]32)OCO4)CC[C@H]1O	–	–	–	–	–	–	pIC50 (HepG2 [4]): 7.38; pIC50 (MCF7): 7.38; pIC50 (A549 [5]): 7.38; pIC50 (HeLa [6]): 7.38
COc1cc([C@@H]2c3cc4c(cc3[C@@H](NC(=S)NC(=O)c3cccc5ccccc35)[C@H]3COC(=O)[C@H]23)OCO4)cc(OC)c1OC	–	–	–	7.00	7.00	7.00	–
COc1cc([C@@H]2c3cc4c(cc3[C@H](OC(=O)/C=C/c3ccco3)[C@H]3COC(=O)[C@H]23)OCO4)cc(OC)c1OC	7.96	7.96	1.1	–	–	–	–
COc1cc([C@@H]2c3cc4c(cc3[C@@H](O[C@H]3CC[C@@H](O)[C@@H](C(C)C)O3)[C@H]3COC(=O)[C@H]23)OCO4)cc(OC)c1O	–	–	–	–	–	–	pIC50 (HepG2 [4]): 7.38; pIC50 (MCF7): 7.38; pIC50 (A549 [5]): 7.38; pIC50 (HeLa [6]): 7.38
